Test results taken from US9204649B2 (priority 2011, dated 2015).

Legend:
[1] = log P (pH 2.7) given with the preparation examples; type: physicochemical; settings: for logP: pH 2.7, pH 2.7
[2] = test system: Phytophthora infestans; type: in vivo; settings: tomato young plants, protective spray, active ingredient concentration 10 ppm, evaluation 3 days after inoculation; 0% = control, 100% = no infection
[3] = physchem

Structure (SMILES) | log P (pH 2.7) ([1]; pH 2.7) | logP [1] | Eff (efficacy) [2] | chromatographic logP ([3]; pH 2.3) | chromatographic logP ([3]; pH 7.8) | logP ([1]; reversed-phase HPLC column (C18))
CC(C)(C)OC(=O)N1CCC(c2nc(C=NO)cs2)CC1 [A, tert-Butyl 4-{4-[(hydroxyimino)methyl]-1,3-thiazol-2-yl}piperidine-1-carboxylate] | 2.38 | 2.25 | – | – | – | –
CCOC(=O)C1CC(c2csc(C3CCN(C(=O)OC(C)(C)C)CC3)n2)=NO1 (stereo not drawn) [B, tert-Butyl 4-{4-[5-(ethoxycarbonyl)-4,5-dihydro-1,2-oxazol-3-yl]-1,3-thiazol-2-yl}piperidine-1-carboxylate] | – | 3.14 | – | – | – | –
O=C(O)C1CC(c2csc(C3CCN(C(=O)Cn4nc(C(F)F)cc4C(F)F)CC3)n2)=NO1 (stereo not drawn) [D, 3-[2-(1-{[3,5-Bis(difluoromethyl)-1H-pyrazol-1-yl]acetyl}piperidin-4-yl)-1,3-thiazol-4-yl]-4,5-dihydro-1,2-oxazole-5-carboxylic acid] | – | 1.77 | – | – | – | –
COC(=O)C1CC(c2csc(C3CCN(C(=O)Cn4nc(C(F)F)cc4C(F)F)CC3)n2)=NO1 (stereo not drawn) [Example I-1, methyl 3-[2-(1-{[3,5-bis(difluoromethyl)-1H-pyrazol-1-yl]acetyl}piperidin-4-yl)-1,3-thiazol-4-yl]-4,5-dihydro-1,2-oxazole-5-carboxylate] | – | 2.26 | 75% | 2.28 | 2.28 | –
O=C(OC1CCCCC1Cl)C1CC(c2csc(C3CCN(C(=O)Cn4nc(C(F)F)cc4C(F)F)CC3)n2)=NO1 (stereo not drawn) [Example I-5, 2-Chlorocyclohexyl 3-[2-(1-{[3,5-bis(difluoromethyl)-1H-pyrazol-1-yl]acetyl}piperidin-4-yl)-1,3-thiazol-4-yl]-4,5-dihydro-1,2-oxazole-5-carboxylate] | – | – | 93% | 3.42 | 3.5 | 3.43
